Where two headings read alike, the source gives them in different places.
Columns and labels:
[1] = system: platelets in whole blood; settings: 0.5 uM Epinephrine, 180 seconds
Method: Collecting a blood sample from an individual in EDTA anticoagulant vacutainer first and then taking blood in trisodium citrate-anticoagulant vacutainer with the same venipuncture and mixing both the samples with the respective anticoagulants at least 15 to 20 times by inversion and allowing EDTA sample to stand at room temperature for a minimum of 20 minutes and then within two hours of collection, the EDTA sample is analysed on an automated hematology analyser to determine the platelet count and appropriate aliquote of citrate sample is taken in a plastic cuvette with a magnetic bar and stirred for 3 minutes at 37° C. and a weak agonist of platelet aggregation in low concentration is added to stirred citrate sample and further stirred for another three minutes at 37° C. At the end of these last three minutes the stirred citrate agonist treated sample is analysed on an hematology analyser for platelet count. Difference between EDTA platelet count and agonist treated stirred citrate platelet count, percentage of platelet aggregation is calculated by dividing the difference by EDTA platelet count and multiplying it by 100.
All samples were collected in the morning when the subjects were fasting. Blood was collected in Plain vaccutainer then EDTA vacutainer by a clean venipuncture using a 20 G needle and then in the 3.8% Na citrate (1:10 dil) vacutainer. Both these anticoagulated blood samples were thoroughly mixed with respective anticoagulants by inversion (15 to 20 times) and the EDTA sample was made to stand at room temperature for 20 minutes after collection and only then analysed for platelet count measurements on the automated hematology analyser. Both samples were analysed within two hours of collection. […]

[2] = system: platelets; test: Platelet aggregation in blood anticoagulated with D-Phe-Pro-Arg chloromethyl ketone dihydrochloride; assay type: cell-based; settings: aggregation caused by addition of agonist
Excerpt: Heparin, Na Citrate 3.2% can also be used instead of citrate 3.8% as anticoagulant to study platelet hyperaggregation.

[3] = system: hyperactive platelets; test: Assessment of efficacy of antiplatelet treatment in patients by Rapid Thrombochek test and microscopic method; assay type: in vivo, human; settings: twenty myocardial infarction patients on daily aspirin for minimum 3 weeks; both methods
Method: Tests were carried out on healthy adults (male and female) and the normals were established. The test was carried out on patients of diabetes mellitus and known cases of myocardial infarction. […] All the smears were prepared by taking a drop of blood on slide and making a smear by cover slide method of smear preparation. All the smears were fixed in alcohol after drying and stained with […] stain and examined under oil immersion lense. Platelets free and in aggregates were counted and percentage of aggregation was worked out. TWENTY PATIENTS OF MYOCARDIAL INFARCTION ON DAILY ASPIRIN FOR MINIMUM PERIOD OF 3 WEEKS WERE TESTED BY […] WELL AS BY MICROSCOPIC METHOD FOR ASSESSMENT OF EFFICACY OF ANTIPLATELET TREATMENT.

Question: What does the source list for `CNC[C@H](O)c1ccc(O)c(O)c1` [Epinephrine, Epinephrine bitartrate]?
Answer: Platelet Aggregation % at 180 sec. at 37° C., mean (SD) ([1]; Diabetes patients): 35 (12) %; Platelet Aggregation % at 180 sec. at 37° C., mean (SD) ([1]; MI (myocardial infarction) patients): 29 (11) %; Platelet Aggregation % at 180 sec. at 37° C., mean (SD) ([1]; Normal group (healthy adults)): 14.5 (7) %

Question: How did the “Effect on agonist-induced platelet aggregation when used as anticoagulant” value [2] turn out when “D-Phe-Pro-Arg chloromethyl ketone dihydrochloride” was run?
Answer: Its value is “substantial disaggregation of platelet aggregation”.

Question: For `CC(=O)Oc1ccccc1C(=O)O` [ASPIRIN, Aspirin], which “Efficacy of antiplatelet treatment (hyperactive platelets above normal range)” value [3] is on record?
Answer: The value was “LESS THAN EFFECTIVE IN FOUR OF THEM”.
